Data taken from US6710048B2, “Pyrazine derivatives as modulators of tyrosine kinases” (Ortho-McNeil Pharmaceutical, Inc., priority 2000, dated 2004).
pIC50: −log10 of the molar value. Where two headings read alike, the source gives them in different places.

Legend:
[1] = target: T1, CDK1 (cyclin dependent kinase 1) / cyclin B (Homo sapiens, UniProt P06493); assay: CDK1 kinase assay; format: biochemical
T1 construct: purchased New England Biolabs 6020; host or cells: insect cells
Protocol: (§1) The term n.d. means not tested.
Assays to test compound inhibition of other kinases were preformed using methods that measure the amount of phosphorylation of a biotinylated peptide substrate. Biotinylated peptide substrates were selected from the literature as appropriate for the enzyme being evaluated. The general procedure used to assay for kinase activity is as follows: A kinase reaction mix was prepared in 50 mM Tris-HCl pH=8, 10 mM MgCl2, 0.1 mM NaVO4, 1 mM DTT, 5-10 μM ATP, 0.25-1 μM biotinylated peptide substrate, 0.2-0.8 μCuries per well ^33P-γ-ATP [2000-3000 Ci/mmol]. Assay conditions vary slightly for each protein kinase, for example, insulin receptor kinase requires 10 mM MnCl2 for activity and Calmodulin-dependent protein kinase requires calmodulin and 2 mM CaCl2. The reaction mixture was dispensed into the wells of a streptavidin coated Flashplate and 1 μl drug stock in 100% DMSO was added to a 100 μl reaction volume resulting in a final concentration of 1% DMSO in the reaction. Enzyme was diluted in 50 mM Tris-HCl pH=8.0, 0.1% BSA and added to each well. The reaction was incubated for one hour at 30° C. in the presence of compound. After one hour the reaction mix was aspirated from the plate and the plate was washed with PBS containing 100 mM EDTA. The plate was read on a scintillation counter to determine ^33P-γ-ATP incorporated into the immobilized peptide. […] A maximum and minimum signal for the assay was determined on each plate. The IC50 was calculated from the dose response curve of the percent inhibition of the maximum signal in the assay according to the formula [max signal−background/test compound signal−background (100)=% inhibition] by graphing the percent inhibition against the log concentration of test compound. Known inhibitor compounds appropriate for the kinase being assayed were also included on each plate.
VEGF-R (vascular endothelial growth factor receptor-2) is a fusion protein containing a polyhistidine tag at the N-terminus followed by amino acids 786-1343 of the rat VEGF-R2 kinase domain (GenBank Accession #U93306). CDK1 (cyclin dependent kinase 1) is isolated from insect cells expressing both the human CDK1 catalytic subunit and its positive regulatory subunit cyclin B (New England Biolabs, Beverly, Mass., Cat. #6020). CDK4 (cyclin dependent kinase 4) contains amino acids 769 to 921 of the mouse […] protein found in the GST-retinoblastoma protein construct (Santa Cruz Biotechnology, Santa Cruz, Calif.; Cat. #SC-4112). Insulin Receptor Kinase consists of residues 941-1313 of the cytoplasmic domain of the beta-subunit of the human insulin receptor (BIOMOL, Plymouth Meeting, Pa., Cat. #SE-195). Protein Kinase A is the catalytic subunit of cAMP dependent protein kinase-A purified from bovine heart (Upstate Biotech, Lake Placid, N.Y., Cat#14-114). PKC (protein kinase-C) is the gamma or beta isoform of the human protein produced in insect cells (BIOMOL, Plymouth Meeting, Pa., Cat. #SE-143). Casein Kinase 1 is a truncation at amino acid 318 of the C-terminal portion of the rat CK1 delta isoform produced in E.coli (New England Biolabs, Beverly, Mass., Cat. #6030). Casein Kinase 2 includes the alpha and beta subunits of the human CK2 protein produced in E.coli (New England Biolabs, Beverly, Mass., Cat. #6010). Calmodulin Kinase (calmodulin-dependent protein kinase 2) is a truncated version of the alpha subunit of the rat protein produced in insect cells (New England Biolabs, Beverly, Mass., Cat. #6060). Glycogen Synthase Kinase-3 is the beta isoform of the rabbit enzyme produced in E. coli (New England Biolabs, Beverly, Mass., Cat. #6040). MAP Kinase is the rat ERK-2 isoform containing a polyhistidine tag at the N-terminus produced in E. coli. and activated by phosphorylation with MEK1 prior to purification (BIOMOL, Plymouth Meeting, Pa., Cat. #SE-137). EGFR (epidermal growth factor receptor) is purified from human A431 cell membranes (Sigma, St. Louis, Mo., Cat.# E3641). […]

[2] = target: T2, VEGF-R (vascular endothelial growth factor receptor-2) (Rattus norvegicus, UniProt O08775); assay: VEGF-R screening assay (33P FlashPlate kinase assay); format: biochemical
T2 construct: polyhistidine (6xHis) (N)
T2 sequence (O08775 786-1343): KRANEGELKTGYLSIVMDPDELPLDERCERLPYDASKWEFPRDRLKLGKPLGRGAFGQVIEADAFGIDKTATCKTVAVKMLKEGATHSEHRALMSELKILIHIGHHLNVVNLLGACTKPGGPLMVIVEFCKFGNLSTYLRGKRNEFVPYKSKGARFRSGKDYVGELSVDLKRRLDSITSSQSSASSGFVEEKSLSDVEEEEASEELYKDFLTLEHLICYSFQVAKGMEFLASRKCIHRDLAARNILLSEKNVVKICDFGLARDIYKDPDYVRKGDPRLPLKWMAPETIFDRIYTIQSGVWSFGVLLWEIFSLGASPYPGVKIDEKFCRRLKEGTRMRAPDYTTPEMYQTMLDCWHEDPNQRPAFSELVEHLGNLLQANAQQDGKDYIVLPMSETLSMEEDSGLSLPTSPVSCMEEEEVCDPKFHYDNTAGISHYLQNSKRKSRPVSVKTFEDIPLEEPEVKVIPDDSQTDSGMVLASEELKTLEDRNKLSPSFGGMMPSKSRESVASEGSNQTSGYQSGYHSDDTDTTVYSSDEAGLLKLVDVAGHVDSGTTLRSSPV
Protocol: A kinase reaction mixture was prepared containing 50 mM Tris-HCl pH=8, 10 mM MgCl2, 0.1 mM NAPO4, 1 mM DTT, 10 μM ATP, 0.025 μM biotinylated peptide substrate and 0.8 μCuries per well ^33P-γ-ATP [2000-3000 Ci/mmol]. 70 μl of the kinase reaction mixture was dispensed into the well of a streptavidin coated FlashPlate™ (Cat. # SMP103, NEN, Boston, Mass.). Then 1 μl of test compound stock in 100% DMSO was added to the wells resulting in a final concentration of 1% DMSO in the reaction with a 100 μl final reaction volume. Next, soluble rat tyrosine kinase containing an N-terminal 6×HIS tag was diluted in 50 mM Tris-HCl pH=8.0, 0.1% BSA at a concentration of 5 ng per microliter and 30 μl (150 ng enzyme per test well) was added to each well to initiate the reaction. The reaction was incubated for one hour at 30° C. At the end of the 1-hour incubation, the reaction was terminated by aspirating the reaction mixture from the plate and washing the wells twice with PBS containing 100 mM EDTA. The PLCI biotinylated peptide substrate becomes immobilized on the Flashplate™ and the incorporation of ^33P-γ-ATP was measured by reading the plate on a scintillation counter. Inhibition of the enzymatic activity of the VEGF-R was measured by observing a reduced amount of ^33P-γ-ATP incorporated into the immobilized peptide.
as §1
Assays to test compound inhibition of other kinases were preformed using methods that measure the amount of phosphorylation of a biotinylated peptide substrate. Biotinylated peptide substrates were selected from the literature as appropriate for the enzyme being evaluated. The general procedure used to assay for kinase activity is as follows: A kinase reaction mix was prepared in 50 mM Tris-HCl pH=8, 10 mM MgCl2, 0.1 mM NaVO4, 1 mM DTT, 5-10 μM ATP, 0.25-1 μM biotinylated peptide substrate, 0.2-0.8 μCuries per well ^33P-γ-ATP [2000-3000 Ci/mmol]. Assay conditions vary slightly for each protein kinase, for example, insulin receptor kinase requires 10 mM MnCl2 for activity and Calmodulin-dependent protein kinase requires calmodulin and 2 mM CaCl2. The reaction mixture was dispensed into the wells of a streptavidin coated Flashplate and 1 μl drug stock in 100% DMSO was added to a 100 μl reaction volume resulting in a final concentration of 1% DMSO in the reaction. Enzyme was diluted in 50 mM Tris-HCl pH=8.0, 0.1% BSA and added to each well. The reaction was incubated for one hour at 30° C. in the presence of compound. After one hour the reaction mix was aspirated from the plate and the plate was washed with PBS containing 100 mM EDTA. The plate was read on a scintillation counter to determine ^33P-γ-ATP incorporated into the immobilized peptide. Test compounds were assayed in duplicate at 8 concentrations [100 tM, 10 μM, 1 μM, 100 nM, 10 nM, 1 nM, 100 μM, 10 μM]. A maximum and minimum signal for the assay was determined on each plate. The IC50 was calculated from the dose response curve of the percent inhibition of the maximum signal in the assay according to the formula [max signal−background/test compound signal−background (100)=% inhibition] by graphing the percent inhibition against the log concentration of test compound. Known inhibitor compounds appropriate for the kinase being assayed were also included on each plate.
VEGF-R (vascular endothelial growth factor receptor-2) is a fusion protein containing a polyhistidine tag at the N-terminus followed by amino acids 786-1343 of the rat VEGF-R2 kinase domain (GenBank Accession #U93306). CDK1 (cyclin dependent kinase 1) is isolated from insect cells expressing both the human CDK1 catalytic subunit and its positive regulatory subunit cyclin B (New England Biolabs, Beverly, Mass., Cat. #6020). CDK4 (cyclin dependent kinase 4) contains amino acids 769 to 921 of the mouse […] protein found in the GST-retinoblastoma protein construct (Santa Cruz Biotechnology, Santa Cruz, Calif.; Cat. #SC-4112). […]

[3] = Tables 1-3, >10 or >100 = no 50% inhibition at highest dose tested, read-out: CDK IC50
[4] = Tables 1-3, >10 or >100 = no 50% inhibition at highest dose tested, read-out: VEGF-R IC50

T1 sequence (P06493 whole entry): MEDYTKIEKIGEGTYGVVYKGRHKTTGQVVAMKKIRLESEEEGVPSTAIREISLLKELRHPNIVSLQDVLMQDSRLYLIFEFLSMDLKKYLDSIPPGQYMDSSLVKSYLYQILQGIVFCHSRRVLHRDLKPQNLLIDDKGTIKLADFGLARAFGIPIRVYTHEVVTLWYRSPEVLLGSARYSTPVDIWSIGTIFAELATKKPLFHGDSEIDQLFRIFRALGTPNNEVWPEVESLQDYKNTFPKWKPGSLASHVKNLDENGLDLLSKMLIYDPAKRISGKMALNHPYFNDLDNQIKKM
T1 sequence (P14635 whole entry partner): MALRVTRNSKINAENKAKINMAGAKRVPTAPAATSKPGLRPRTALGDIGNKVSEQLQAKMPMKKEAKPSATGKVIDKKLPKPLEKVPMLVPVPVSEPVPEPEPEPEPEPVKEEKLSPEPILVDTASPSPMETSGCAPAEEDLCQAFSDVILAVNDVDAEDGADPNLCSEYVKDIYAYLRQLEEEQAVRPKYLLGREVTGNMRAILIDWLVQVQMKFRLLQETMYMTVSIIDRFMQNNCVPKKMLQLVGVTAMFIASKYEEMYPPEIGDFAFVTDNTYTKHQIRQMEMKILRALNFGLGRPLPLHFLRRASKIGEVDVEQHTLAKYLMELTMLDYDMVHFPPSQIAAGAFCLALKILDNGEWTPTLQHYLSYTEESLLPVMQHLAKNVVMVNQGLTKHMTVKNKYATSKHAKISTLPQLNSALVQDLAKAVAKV

SMILES | pIC50 [1, 3] | pIC50 [2, 4] | pIC50 ([1]; Table 4 kinase selectivity, 10 = approximate value, read-out: IC50, Assay 2 CDK1) | pIC50 ([2]; Table 4 kinase selectivity, read-out: IC50, Assay 1 VEGF-R)
COCCNC(=O)c1cncc(-c2cncc(Nc3cccc(Cl)c3)n2)c1 [Cmd 36] | < 4.00 | ~5.00 |  | 
CN(C)c1ccc(C(=O)Nc2cncc(-c3cncc(Nc4cccc(Cl)c4)n3)c2)cc1 [Cmd 42] | < 4.00 | < 4.00 |  | 
Clc1cccc(Nc2cncc(-c3cncc(NCCCN4CCOCC4)c3)n2)c1 [Cmd 34] | < 4.00 | 6.74 |  | 
O=C(COc1ccccc1)Nc1cncc(-c2cncc(Nc3cccc(Cl)c3)n2)c1 [Cmd 99] | < 5.00 | < 5.00 |  | 
OCCCNc1cnc(F)c(-c2cncc(Nc3cccc(Cl)c3)n2)c1 [Cmd 106] | < 5.00 | 6.44 to 6.86 |  | 
Clc1ccc(Nc2cncc(-c3cncc(NCCCc4ccncc4)c3)n2)cc1 [Cmd 87] | < 5.00 | 6.00 |  | 
COCC(=O)Nc1cncc(-c2cncc(Nc3cccc(Cl)c3)n2)c1 [Cmd 41] | < 4.00 | 6.44 |  | 
CCOC(=O)c1cncc(-c2cncc(Nc3cccc(Cl)c3)n2)c1 [Cmd 1] | < 5.00 |  |  | 
O=C(Nc1cncc(-c2cncc(Nc3cccc(Cl)c3)n2)c1)c1cccnc1 [Cmd 43] | < 4.00 | 5.95 |  | 
O=C(COCc1ccccc1)Nc1cncc(-c2cncc(Nc3cccc(Cl)c3)n2)c1 [Cmd 101] | < 5.00 | < 5.00 |  | 
Clc1cccc(Nc2cncc(-c3cncc(NCCOc4ccccc4)c3)n2)c1 [Cmd 83] | < 5.00 | < 5.00 |  | 
Clc1cccc(Nc2cncc(-c3cncc(NCCCCc4ccncc4)c3)n2)c1 [Cmd 70] |  | 6.53 |  | 
CC(=O)Nc1ncc(NCCCO)cc1-c1cncc(Nc2cccc(Cl)c2)n1 [Cmd 109] | < 5.00 | < 5.00 |  | 
CN(C)CCCNC(=O)c1cncc(-c2cncc(Nc3cccc(Cl)c3)n2)c1 [Cmd 37] | < 4.00 | 5.26 |  | 
OCCCNc1cnc(Cl)c(-c2cncc(Nc3cccc(Cl)c3)n2)c1 [Cmd 110] | < 5.00 | < 5.00 |  | 
N#Cc1ncc(NCCCO)cc1-c1cncc(Nc2cccc(Cl)c2)n1 [Cmd 111] | < 5.00 | < 5.00 |  | 
O=C(Nc1cncc(-c2cncc(Nc3cccc(Cl)c3)n2)c1)N1CCCC1 [Cmd 74] | < 5.00 | 6.24 |  | 
CCOCCCNC(=O)c1cncc(-c2cncc(Nc3cccc(Cl)c3)n2)c1 [Cmd 40] | < 4.00 | < 4.00 |  | 
Clc1cccc(Nc2cncc(-c3cncc(NCc4ccccc4)c3)n2)c1 [Cmd 82] | < 5.00 | 5.37 |  | 
Nc1ncc(NCCCO)cc1-c1cncc(Nc2cccc(Cl)c2)n1 [Cmd 107] | < 5.00 | 5.87 |  | 

Next, values leading:

pIC50 [1, 3] | pIC50 [2, 4] | pIC50 ([1]; Table 4 kinase selectivity, 10 = approximate value, read-out: IC50, Assay 2 CDK1) | pIC50 ([2]; Table 4 kinase selectivity, read-out: IC50, Assay 1 VEGF-R) | SMILES
< 5.00 | 6.44 |  |  | Clc1cccc(Nc2cncc(-c3cncc(NCCCN4CCNCC4)c3)n2)c1 [Cmd 69]
< 5.00 | 6.23 |  |  | COCCC(=O)Nc1cncc(-c2cncc(Nc3cccc(Cl)c3)n2)c1 [Cmd 103]
< 5.00 | 6.55 |  |  | OCCOCCOCCNc1cncc(-c2cncc(Nc3cccc(Cl)c3)n2)c1 [Cmd 78]
< 5.00 | < 5.00 |  |  | OCCCNc1cncc(-c2cncc(Oc3cccc(Cl)c3)n2)c1 [Cmd 96]
< 5.00 | 7.07 | < 5.00 | 7.07 | COCCOCCNc1cncc(-c2cncc(Nc3cccc(Cl)c3)n2)c1 [Cmd 85]
4.93 | 5.94 |  |  | Nc1cncc(-c2cncc(Nc3cccc(Cl)c3)n2)c1 [Cmd 5]
< 5.00 | 6.81 |  |  | COc1ccc(Nc2cncc(-c3cncc(NCCCc4ccncc4)c3)n2)cc1 [Cmd 88]
< 5.00 | 5.64 |  |  | Clc1cccc(Nc2cncc(-c3cncc(NCCCc4ccccc4)c3)n2)c1 [Cmd 80]
< 5.00 | 5.96 |  |  | CCN(CC)C(=O)CNc1cncc(-c2cncc(Nc3cccc(Cl)c3)n2)c1 [Cmd 81]
< 5.00 | 6.39 |  |  | O=C(CO)Nc1cncc(-c2cncc(Nc3cccc(Cl)c3)n2)c1 [Cmd 105]
< 5.00 | < 5.00 |  |  | Clc1cccc(Nc2cncc(-c3cncc(NCCCN4CCN(c5cccc(Cl)c5)CC4)c3)n2)c1 [Cmd 86]
5.43 | 5.37 |  |  | CN(C)CCNC(=O)c1cncc(-c2cncc(Nc3cccc(Cl)c3)n2)c1 [Cmd 38]
~4.00 | 6.77 |  |  | OCCCNc1cncc(-c2cncc(Nc3cccc(F)c3)n2)c1 [Cmd 52]
4.09 | 6.09 |  |  | COc1cccc(Nc2cncc(-c3cncc(NCCCO)c3)n2)c1 [Cmd 57]
